Experimental data published in paper PMC12736120, “First-in-Human Phase I Clinical Trial of SLC-391, a Novel and Selective AXL Inhibitor, in Patients with Advanced Solid Tumours” (Pharmaceuticals, 2025).

Assay: Phase I safety and tolerability (DLTs, adverse events, laboratory, ECG)
Format: in vivo
Description: This study employed a standard 3 + 3 dose escalation design with a starting dose of 25 mg QD. […] Dose escalation decisions took into account all available data from evaluable subjects as well as PK and the safety profile of prior dose cohorts. […] There was a minimum 5-day stagger between dosing of the first and second subjects in each dose cohort. Dose escalation decisions were made by a data review committee (DRC) composed of, at minimum, the medical monitor, at least one principal investigator, and a sponsor representative, per the study DRC Plan. Dose escalation could continue until 2 or more subjects in the same dose cohort experienced a dose-limiting toxicity (DLT). DLTs were defined as Grade 3 or 4 adverse drug reactions (ADRs), with grades as defined in the National Cancer Institute Common Toxicity Criteria for Adverse Events (NCI-CTCAE) version 5.0. […] The MTD was defined as the highest dose at which no more than 1 of 6 subjects experienced a DLT during cycle 1 of the study drug. The MTD would have been exceeded if 2 or more subjects in a dose cohort of up to 6 subjects experienced a DLT. Subjects could continue treatment until disease progression, unacceptable toxicity, death, withdrawal of consent, or loss to follow-up.
Before enrolment in the study, all patients received a detailed medical history and physical examination. Clinical laboratory evaluations included clinical chemistry, complete blood count, urinalysis, coagulation factors, and a lipid panel. Other safety assessments included vital signs, physical examination, electrocardiogram, and echocardiogram with multigated acquisition (ECHO/MUGA). Safety assessments were performed on days 1, 8, 15, and 21 of cycle 1, and on day 1 of cycles 2 to 6.

[1] = Grade All, Overall Study (N = 35)
[2] = Possibly related, Overall BID (N = 15)
[3] = Possibly related, Overall QD (N = 20)
[4] = Possibly related, Overall Study (N = 35)
[5] = Probably related, Overall BID (N = 15)
[6] = Probably related, Overall QD (N = 20)
[7] = Probably related, Overall Study (N = 35)
[8] = Relatedness All, Overall BID (N = 15)
[9] = Relatedness All, Overall QD (N = 20)
[10] = Relatedness All, Overall Study (N = 35)

In the case of `Nc1ncc(-c2cnn(C3CCNCC3)c2)cc1-c1nnc(CC2CC2)o1` [SLC-391, 3-(5-[cyclopropylmethyl]-1,3,4-oxadiazol-2-yl)-5-(1-[piperidin-4-yl]-1H-pyrazol-4-yl)-pyridin-2-amine], the “TEAE: Musculoskeletal and connective tissue disorders” value [1] is reported as 14 (40.0) n (%), the “TEAE: Nausea” value [1] is reported as 24 (68.6) n (%) and the “TEAE: Nervous system disorders” value [1] is reported as 15 (42.9) n (%). The “TEAE: Oedema peripheral” value [1] was 4 (11.4) n (%), the “TEAE: Psychiatric disorders” value [1] was 5 (14.3) n (%) and the “TEAE: Pyrexia” value [1] was 5 (14.3) n (%). The “TEAE: Renal and urinary disorders” value [1] was 6 (17.1) n (%), the “TEAE: Respiratory, thoracic, and mediastinal disorders” value [1] was 19 (54.3) n (%) and the “TEAE: Skin and subcutaneous tissue disorders” value [1] was 10 (28.6) n (%). The “TEAE: Urinary tract infection” value [1] was 4 (11.4) n (%), the “TEAE: Vascular disorders” value [1] was 5 (14.3) n (%) and the “TEAE: Vomiting” value [1] was 17 (48.6) n (%). For the same compound, the “TEAE: Weight decreased” value [1] was 6 (17.1) n (%), the “Any treatment-related adverse event (TRAE)” value [2] was 7 (46.7%) n (%) and the “TRAE: Decreased appetite” value [2] was 1 (6.7%) n (%). The “TRAE: Diarrhoea” value [2] was 4 (26.7%) n (%), the “TRAE: Dysgeusia” value [2] was 1 (6.7%) n (%) and the “TRAE: Fatigue” value [2] was 3 (20.0%) n (%). The “TRAE: Gastrointestinal disorders” value [2] was 5 (33.3%) n (%), the “TRAE: General disorders and administration site conditions” value [2] was 3 (20.0%) n (%) and the “TRAE: Metabolism and nutrition disorders” value [2] was 1 (6.7%) n (%). The “TRAE: Nausea” value [2] was 4 (26.7%) n (%), the “TRAE: Nervous system disorders” value [2] was 1 (6.7%) n (%) and the “TRAE: Skin and subcutaneous tissue disorders” value [2] was 2 (13.3%) n (%). The “TRAE: Vomiting” value [2] was 1 (6.7%) n (%), the “Any treatment-related adverse event (TRAE)” value [3] was 8 (40.0%) n (%) and the “TRAE: Decreased appetite” value [3] was 3 (15.0%) n (%). The “TRAE: Diarrhoea” value [3] was 5 (25.0%) n (%), the “TRAE: Dysgeusia” value [3] was 0 n (%) and the “TRAE: Fatigue” value [3] was 2 (10.0%) n (%). For the same compound, the “TRAE: Gastrointestinal disorders” value [3] was 8 (40.0%) n (%), the “TRAE: General disorders and administration site conditions” value [3] was 3 (15.0%) n (%) and the “TRAE: Metabolism and nutrition disorders” value [3] was 4 (20.0%) n (%). For the same compound, the “TRAE: Nausea” value [3] was 5 (25.0%) n (%), the “TRAE: Nervous system disorders” value [3] was 1 (5.0%) n (%) and the “TRAE: Skin and subcutaneous tissue disorders” value [3] was 4 (20.0%) n (%). The “TRAE: Vomiting” value [3] was 3 (15.0%) n (%), the “Any treatment-related adverse event (TRAE)” value [4] was 15 (42.9%) n (%) and the “TRAE: Decreased appetite” value [4] was 4 (11.4%) n (%). The “TRAE: Diarrhoea” value [4] was 9 (25.7%) n (%), the “TRAE: Dysgeusia” value [4] was 1 (2.9%) n (%) and the “TRAE: Fatigue” value [4] was 5 (14.3%) n (%). The “TRAE: Gastrointestinal disorders” value [4] was 13 (37.1%) n (%), the “TRAE: General disorders and administration site conditions” value [4] was 6 (17.1%) n (%) and the “TRAE: Metabolism and nutrition disorders” value [4] was 5 (14.3%) n (%). The “TRAE: Nausea” value [4] was 9 (25.7%) n (%), the “TRAE: Nervous system disorders” value [4] was 2 (5.7%) n (%) and the “TRAE: Skin and subcutaneous tissue disorders” value [4] was 6 (17.1%) n (%). The “TRAE: Vomiting” value [4] was 4 (11.4%) n (%), the “Any treatment-related adverse event (TRAE)” value [5] was 1 (6.7%) n (%) and the “TRAE: Diarrhoea” value [5] was 1 (6.7%) n (%). The “TRAE: Dysgeusia” value [5] was 0 n (%), the “TRAE: Gastrointestinal disorders” value [5] was 1 (6.7%) n (%) and the “TRAE: Nausea” value [5] was 0 n (%). The “TRAE: Nervous system disorders” value [5] was 0 n (%), the “TRAE: Skin and subcutaneous tissue disorders” value [5] was 0 n (%) and the “TRAE: Vomiting” value [5] was 0 n (%). For the same compound, the “Any treatment-related adverse event (TRAE)” value [6] was 3 (15.0%) n (%), the “TRAE: Diarrhoea” value [6] was 0 n (%) and the “TRAE: Dysgeusia” value [6] was 1 (5.0%) n (%). For the same compound, the “TRAE: Gastrointestinal disorders” value [6] was 2 (10.0%) n (%), the “TRAE: Nausea” value [6] was 2 (10.0%) n (%) and the “TRAE: Nervous system disorders” value [6] was 2 (10.0%) n (%). For the same compound, the “TRAE: Skin and subcutaneous tissue disorders” value [6] was 2 (10.0%) n (%), the “TRAE: Vomiting” value [6] was 1 (5.0%) n (%) and the “Any treatment-related adverse event (TRAE)” value [7] was 4 (11.4%) n (%). For the same compound, the “TRAE: Diarrhoea” value [7] was 1 (2.9%) n (%), the “TRAE: Dysgeusia” value [7] was 1 (2.9%) n (%) and the “TRAE: Gastrointestinal disorders” value [7] was 3 (8.6%) n (%). The “TRAE: Nausea” value [7] was 2 (5.7%) n (%), the “TRAE: Nervous system disorders” value [7] was 2 (5.7%) n (%) and the “TRAE: Skin and subcutaneous tissue disorders” value [7] was 2 (5.7%) n (%). The “TRAE: Vomiting” value [7] was 1 (2.9%) n (%), the “SAEs, subjects” value (QD cohorts) was 20.0% and the “TEAEs leading to treatment interruption or missed dose” value (QD cohorts) was 20.0%. For the same compound, the “TEAEs leading to treatment or study discontinuation, subjects” value (QD cohorts) was 20.0%, the “subjects with Grade 3 TEAEs” value (QD cohorts) was 30.0% and the “subjects with TRAEs” value (QD cohorts) was 90.0%. The “subjects with at least one TEAE” value (QD cohorts) was 95.0%, the “Any treatment-related adverse event (TRAE)” value [8] was 13 (86.7%) n (%) and the “TRAE: Decreased appetite” value [8] was 3 (20.0%) n (%). For the same compound, the “TRAE: Diarrhoea” value [8] was 7 (46.7%) n (%), the “TRAE: Dysgeusia” value [8] was 2 (13.3%) n (%) and the “TRAE: Fatigue” value [8] was 4 (26.7%) n (%). The “TRAE: Gastrointestinal disorders” value [8] was 11 (73.3%) n (%), the “TRAE: General disorders and administration site conditions” value [8] was 4 (26.7%) n (%) and the “TRAE: Metabolism and nutrition disorders” value [8] was 3 (20.0%) n (%). The “TRAE: Nausea” value [8] was 8 (53.3%) n (%), the “TRAE: Nervous system disorders” value [8] was 2 (13.3%) n (%) and the “TRAE: Skin and subcutaneous tissue disorders” value [8] was 2 (13.3%) n (%). For the same compound, the “TRAE: Vomiting” value [8] was 4 (26.7%) n (%), the “Any treatment-related adverse event (TRAE)” value [9] was 18 (90.0%) n (%) and the “TRAE: Decreased appetite” value [9] was 5 (25.0%) n (%). For the same compound, the “TRAE: Diarrhoea” value [9] was 10 (50.0%) n (%), the “TRAE: Dysgeusia” value [9] was 2 (10.0%) n (%) and the “TRAE: Fatigue” value [9] was 5 (25.0%) n (%). The “TRAE: Gastrointestinal disorders” value [9] was 16 (80.0%) n (%), the “TRAE: General disorders and administration site conditions” value [9] was 6 (30.0%) n (%) and the “TRAE: Metabolism and nutrition disorders” value [9] was 6 (30.0%) n (%). For the same compound, the “TRAE: Nausea” value [9] was 11 (55.0%) n (%), the “TRAE: Nervous system disorders” value [9] was 4 (20.0%) n (%) and the “TRAE: Skin and subcutaneous tissue disorders” value [9] was 6 (30.0%) n (%). The “TRAE: Vomiting” value [9] was 9 (45.0%) n (%), the “Any treatment-related adverse event (TRAE)” value [10] was 31 (88.6%) n (%) and the “TRAE: Decreased appetite” value [10] was 8 (22.9%) n (%). For the same compound, the “TRAE: Diarrhoea” value [10] was 17 (48.6%) n (%), the “TRAE: Dysgeusia” value [10] was 4 (11.4%) n (%) and the “TRAE: Fatigue” value [10] was 9 (25.7%) n (%). For the same compound, the “TRAE: Gastrointestinal disorders” value [10] was 27 (77.1%) n (%), the “TRAE: General disorders and administration site conditions” value [10] was 10 (28.6%) n (%) and the “TRAE: Metabolism and nutrition disorders” value [10] was 9 (25.7%) n (%). The “TRAE: Nausea” value [10] was 19 (54.3%) n (%), the “TRAE: Nervous system disorders” value [10] was 6 (17.1%) n (%) and the “TRAE: Skin and subcutaneous tissue disorders” value [10] was 8 (22.9%) n (%). For the same compound, the “TRAE: Vomiting” value [10] was 13 (37.1%) n (%), the deaths (after study drug discontinuation due to progressive disease) was “Two deaths” and the “heme toxicity, ECG, neutrophil count, QT interval/QTcF” value (all subjects) was “no reports of heme toxicity or clinically significant abnormal ECG and neutrophil count changes, including QT interval or QTcF prolongation”. The “TEAEs leading to drug withdrawal or study discontinuation, subjects” value (all subjects (7/35)) was 20.0%, the “subjects with at least one TEAE” value (all subjects (34/35)) was 97.1% and the “subjects with Grade 3 TRAEs considered related to SLC-391” value (all subjects (N = 35)) was 8.6%. For the same compound, the “subjects with a maximum of Grade 1 TEAEs” value (all subjects (N = 35)) was 8.6%, the “subjects with a maximum of Grade 2 TEAEs” value (all subjects (N = 35)) was 54.3% and the “subjects with a maximum of Grade 3 TEAEs” value (all subjects (N = 35)) was 34.3%. For the same compound, the “subjects with dosing interrupted due to TEAEs” value (all subjects (N = 35)) was 25.7%, the “subjects with one or more TRAE” value (all subjects (N = 35)) was 88.6% and the “subjects with SAEs” value (all subjects (N = 35), eight SAEs in five subjects) was 14.3%. The “subjects with SAEs leading to dose interruption, drug withdrawal, or study discontinuation” value (all subjects (N = 35), four SAEs in three subjects) was 8.6%, the “dose recommended by the safety review committee for further investigations” value (based on safety profile, PK and in vitro/in vivo efficacy data) was 150 mg BID and the clinical chemistry-related toxicities (hypokalaemia, hypomagnesaemia, hyponatraemia, hypophosphataemia, increased blood creatinine, decreased blood zinc, all unrelated to SLC-391) was “Most clinical chemistry-related toxicities were Grade 1 or 2”.
